Values after ≈ are worked out from the molar mass of the structure shown.
What was measured:
[1] = system: human colon carcinoma cells HCT-15; assay: Human colon tumor test in vitro, HCT-15 cell growth inhibition; assay type: cell-based; settings: HCT-15 cells, compound day 1 to day 4; for IC50: Homo sapiens, HCT-15, 72 h, read-out: in vitro HCT-15 ID50 (50 percent inhibition of number of doublings); for in vitro HCT-15 ID50 (50 percent inhibition of number of doublings): 4320 min
Method: The compound of this invention were also tested for their ability to inhibit the growth of human colon carcinoma cells in vitro.
The human colon carcinoma cells, designated HCT-15, were derived from a specimen of an adenocarcinoma of human colon removed during surgery. The cells were grown in Roswell Park Medical Institute (RPMI) Medium 1640 supplemented with 10% heat inactivated fetal calf serum, penicillin (100 units/ml), streptomycin (100 μg/ml), gentamicin (20 μg/ml), fungizone (25 μg/ml), 0.075 percent sodium bicarbonate, […] 4-(2-hydroxyethyl)-1-piperazineethanesulfonic acid and […] N-tris(hydroxymethyl)methylglycine. […] On day 1 cells from sample dishes were harvested using trypsin (0.25%) treatment and counted with a hemocytometer to determine the number of cells per dish at the time of the addition of the compounds. Compounds of this invention were added in varying concentrations to other cultures. On day 4, treated and control cultures were harvested by trypsin treatment and the number of cells was determined. The number of doublings for the control cells was determined from the cell numbers on days 1 and 4. The ID50, the concentration of compound required to inhibit by 50 percent the number of doublings, was then calculated from the dose-response curve in which cell numbers were plotted on log-log paper against compound concentrations in micrograms per ml.

L1210 leukemia = assay: Lymphoid Leukemia L1210, survival of tumored mice; assay type: in vivo, CD2F1 mice; settings: for response vs control in vivo at 50 mg/kg: 50 mg/kg i.p.
Method: The efficacy of the compounds of this invention against the transplanted mouse tumors was evaluated in test systems currently in use at the National Cancer Institute for the detection and assessment of anticancer activity. […] J. Cancer, 17, 129-142, (1981); Venditti, J. M., Seminars in Oncology, 8 (4) (1981); Goldin, A. and J. M. Venditti, in Recent Results in Cancer Research, 70, S. K. Carter and Y. Sakurai, Eds., Springer-Verlag, Berlin/Heidelberg, 1980].
The animals used in this test were CD2 F1 mice, all males weighing a minimum of 18 g and all within a 4 g weight range at the start of the test. The test group consisted of six mice. The tumor was implanted in each of the test mice by the intraperitoneal injection of 0.1 ml of diluted ascitic fluid containing 10^5 cells drawn from a mouse with L1210 leukemia. The test compounds were suspended in hydroxypropylcellulose or saline with Tween® 80 surfactant or dissolved in saline and injected intraperitoneally, at various doses, once daily for nine consecutive days starting on day one relative to the day of tumor inoculation (day 0). The control mice received injections of saline or hydroxypropylcellulose vehicle only. The mice were weighed and survivors were recorded on a regular basis for 30 days. The median survival time and the ratio of the median survival time for the treated (T) and control (C) mice was calculated. […] Drug effectiveness was assessed on the basis of the survival time. Results were expressed as a percentage of the control survival time (Median Survival Time: T/C ×100%). The criterion for effectiveness was determined by: T/C×100≥125 percent.

[2] = Mus musculus, L1210, ip, 720 h, read-out: L1210 Leukemia % T/C (median survival time)

`Cc1c(-c2ccc(Oc3ccc(Cl)cc3)cc2)nc2ccc(F)cc2c1C(=O)O` [Example 29] was tested, and the IC50 [1] was under 0.5 µg/mL and the “L1210 Leukemia % T/C (median survival time)” value (from here on “L1210 Leukemia % T/C”) (L1210 leukemia; 18 mg/kg i.p.) was 194%.
For `Cc1ccc(-c2ccc(-c3nc4ccc(F)cc4c(C(=O)O)c3C)cc2)cc1C` [Example 39], the IC50 [1] was under 0.1 µg/mL.
For `CCc1cccc(-c2ccc(-c3nc4ccc(F)cc4c(C(=O)O)c3C)cc2)c1` [Example 41], the IC50 [1] was 0.0079 µg/mL (≈ 0.0205 µM).
With `Cc1c(-c2ccc(C3CCCCC3)cc2)nc2c(Br)cc(Br)cc2c1C(=O)O` [Example 46] the IC50 [1] was 0.42 µg/mL (≈ 0.835 µM).
`Cc1c(-c2ccc(-c3ccccc3)cc2)nc2cc(Cl)c(Cl)cc2c1C(=O)O` [Example 47] showed an IC50 [1] of 3.2 µg/mL (≈ 7.84 µM).
In the case of `Cc1c(-c2ccc(C3CCCCC3)cc2)nc2ccc(C(F)(F)F)cc2c1C(=O)O` [Example 48], the IC50 [1] is reported as 0.1 µg/mL (≈ 0.242 µM).
Compound `Cc1c(-c2ccc(-c3ccccc3F)cc2)nc2ccc(Cl)cc2c1C(=O)O` [Example 70] has an IC50 [1] of under 0.1 µg/mL.
With `Cc1c(-c2ccc(-c3ccccc3)cc2)nc2cccc(Cl)c2c1C(=O)O` [Example 80] the IC50 [1] was under 0.5 µg/mL.
`Cc1c(-c2ccc(-c3ccccc3F)cc2)nc2ccc(F)c(Cl)c2c1C(=O)O` [Example 84] was tested, and the IC50 [1] was under 0.1 µg/mL.
`Cc1ccc2nc(-c3ccc(-c4ccccc4)cc3)c(C)c(C(=O)O)c2c1` [Example 104] was tested, and the “in vitro HCT-15 ID50 (50 percent inhibition of number of doublings)” value [1] was 0.22 µg/mL.
In the case of `Cc1c(-c2ccc(C3CCCCC3)cc2)nc2ccc(F)cc2c1C(=O)O` [Example 169], the “in vitro HCT-15 ID50 (50 percent inhibition of number of doublings)” value [1] is reported as 0.04 µg/mL.
With `O=C(O)c1cc(-c2ccc(-c3ccccc3)cc2)nc2ccc(F)cc12` [Example 182] the response vs control in vivo at 46 mg/kg (L1210 leukemia; Mus musculus, L1210, ip, 720 h, 46 mg/kg i.p., read-out: L1210 Leukemia % T/C (median survival time)) was 168%.
For `Cc1c(-c2ccc(-c3ccc(Br)cc3)cc2)nc2ccc(F)cc2c1C(=O)O` [Example 183], the response vs control in vivo at 22.5 mg/kg (L1210 leukemia; Mus musculus, L1210, ip, 720 h, 22.5 mg/kg i.p., read-out: L1210 Leukemia % T/C (median survival time)) was 208%.
For `Cc1c(-c2ccc(Oc3ccc([N+](=O)[O-])cc3)cc2)nc2ccc(F)cc2c1C(=O)O` [Example 184], the “L1210 Leukemia % T/C” value (L1210 leukemia; 175 mg/kg i.p.) was 153%.
`Cc1c(-c2ccc(-c3ccccc3)cc2)nc2ccc(I)cc2c1C(=O)O` [Example 185] gave a response vs control in vivo at 50 mg/kg (L1210 leukemia; [2]) of 175%.
`Cc1c(-c2ccc(-c3ccccc3)cc2)nc2cc(F)ccc2c1C(=O)O` [Example 186] gave a response vs control in vivo at 45 mg/kg (L1210 leukemia; Mus musculus, L1210, ip, 720 h, 45 mg/kg i.p., nonoptimal Q1DX9 instead of Q3DX9, read-out: L1210 Leukemia % T/C (median survival time)) of 123%.
`Cc1c(-c2ccc(-c3cccc(F)c3)cc2)nc2ccccc2c1C(=O)O` [Example 190] was tested, and the response vs control in vivo at 50 mg/kg (L1210 leukemia; [2]) was 195%.
`Cc1c(-c2ccc(-c3ccccc3)cc2)nc2ccc(F)cc2c1C(=O)OCCN(C)C` [Example 196] was tested, and the response vs control in vivo at 50 mg/kg (L1210 leukemia; [2]) was 205%.
In the case of `Cc1c(-c2ccc(-c3ccccc3F)cc2)nc2ccc(F)cc2c1C(=O)OCCCN(C)C` [Example 199], the response vs control in vivo at 25 mg/kg (L1210 leukemia; Mus musculus, L1210, ip, 720 h, 25 mg/kg i.p., read-out: L1210 Leukemia % T/C (median survival time)) is reported as 153%.
In the case of `Cc1c(-c2ccc(-c3ccccc3F)cc2)nc2ccc(F)cc2c1C(=O)OCCCN(C)C` [Example 200], the “L1210 Leukemia % T/C” value (L1210 leukemia; 25 mg/kg i.p.) is reported as 140%.
`CCN(CC)CCOC(=O)c1c(C)c(-c2ccc(-c3ccccc3F)cc2)nc2ccc(F)cc12` [Example 202] showed a response vs control in vivo at 59 mg/kg (L1210 leukemia; Mus musculus, L1210, ip, 720 h, 59 mg/kg i.p., read-out: L1210 Leukemia % T/C (median survival time)) of 164%.
In the case of `Cc1c(-c2ccc(-c3ccccc3)cc2F)nc2ccc(F)cc2c1C(=O)O` [Example 208], the IC50 [1] is reported as under 0.001 µg/mL.

From US5032597A, “Method of using phenylquinolinecarboxylic acids and derivatives for lymthoid leukemia treatment in a mammal” (priority 1987, dated 1991)
